Blank lines part the entries; values can stand above or below the molecule they belong to. Active and inactive are the calls of the source. The rule behind the calls is not given here.
Tests used:
K562 [1] = test: Upregulation of TRAIL-R2/Dr5 expression in human K562 cells; type: functional, cell-based
[2] = target: T1, DNA (cytosine-5)-methyltransferase 1 (Homo sapiens, UniProt P26358); test: Inhibition of DNMT1 (unknown origin) using semi-methylated DNA substrate preincubated for 15 mins followed by substrate and [3H-SAM] addition and measured after 60 mins by microbeta scintillation counting assay
T1 sequence (P26358 whole entry): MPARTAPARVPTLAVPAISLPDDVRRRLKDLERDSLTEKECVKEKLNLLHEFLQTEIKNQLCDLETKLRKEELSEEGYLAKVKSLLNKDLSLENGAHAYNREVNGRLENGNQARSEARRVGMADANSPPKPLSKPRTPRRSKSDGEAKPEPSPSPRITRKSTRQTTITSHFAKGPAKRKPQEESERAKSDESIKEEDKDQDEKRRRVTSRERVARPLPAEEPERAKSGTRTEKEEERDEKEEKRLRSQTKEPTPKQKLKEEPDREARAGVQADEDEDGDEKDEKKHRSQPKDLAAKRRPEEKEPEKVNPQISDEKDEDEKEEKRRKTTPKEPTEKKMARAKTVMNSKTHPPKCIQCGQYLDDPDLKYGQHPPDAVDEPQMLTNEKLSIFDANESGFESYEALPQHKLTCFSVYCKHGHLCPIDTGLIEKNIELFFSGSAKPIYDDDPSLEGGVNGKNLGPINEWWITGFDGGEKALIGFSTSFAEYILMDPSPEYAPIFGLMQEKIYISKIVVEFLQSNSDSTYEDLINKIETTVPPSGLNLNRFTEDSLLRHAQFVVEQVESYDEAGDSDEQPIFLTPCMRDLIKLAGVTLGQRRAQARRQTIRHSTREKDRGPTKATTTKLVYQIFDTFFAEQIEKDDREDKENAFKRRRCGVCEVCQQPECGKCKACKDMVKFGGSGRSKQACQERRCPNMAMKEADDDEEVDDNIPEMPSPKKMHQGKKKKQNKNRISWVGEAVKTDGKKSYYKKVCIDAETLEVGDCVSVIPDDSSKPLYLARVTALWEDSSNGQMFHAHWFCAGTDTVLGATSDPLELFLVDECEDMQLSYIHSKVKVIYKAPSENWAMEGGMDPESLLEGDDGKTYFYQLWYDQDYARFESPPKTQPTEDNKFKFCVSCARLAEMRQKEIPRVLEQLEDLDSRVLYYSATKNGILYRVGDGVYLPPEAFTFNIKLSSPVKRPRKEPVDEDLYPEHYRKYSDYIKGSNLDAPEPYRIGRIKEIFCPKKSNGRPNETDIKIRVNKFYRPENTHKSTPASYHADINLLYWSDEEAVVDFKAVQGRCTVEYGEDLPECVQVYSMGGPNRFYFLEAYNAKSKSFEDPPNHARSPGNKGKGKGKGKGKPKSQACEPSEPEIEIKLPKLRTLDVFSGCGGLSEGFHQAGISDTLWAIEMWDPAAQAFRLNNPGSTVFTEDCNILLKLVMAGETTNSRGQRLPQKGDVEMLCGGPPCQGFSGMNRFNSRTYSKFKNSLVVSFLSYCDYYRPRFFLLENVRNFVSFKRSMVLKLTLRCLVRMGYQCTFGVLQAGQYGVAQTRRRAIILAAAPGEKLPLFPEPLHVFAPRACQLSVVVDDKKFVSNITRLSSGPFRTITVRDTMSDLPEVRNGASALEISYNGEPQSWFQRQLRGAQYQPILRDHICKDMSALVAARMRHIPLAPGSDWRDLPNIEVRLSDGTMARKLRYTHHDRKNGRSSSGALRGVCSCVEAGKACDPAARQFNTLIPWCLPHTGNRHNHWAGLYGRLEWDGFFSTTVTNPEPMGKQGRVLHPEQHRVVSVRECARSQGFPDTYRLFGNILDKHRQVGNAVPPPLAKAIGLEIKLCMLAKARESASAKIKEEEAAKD

HeLa [3] = test: Antiproliferative activity against human HeLa cells incubated for 48 hrs by MTT assay; type: functional, cell-based
K562 [4] = test: Induction of apoptosis in human K562 cells assessed as viable cells at 20 uM incubated for 48 hrs by Annexin-V/PI staining based flow cytometry assay (reference value: 92.12%); type: functional; details: read-out: Activity
K562 [5] = test: Induction of apoptosis in human K562 cells assessed as late apoptotic cells at 20 uM incubated for 48 hrs by Annexin-V/PI staining based flow cytometry assay (reference value: 3.73%); type: functional
K562 [6] = test: Induction of cell cycle arrest in human K562 cells assessed as G2/M phase cells at 20 uM incubated for 48 hrs by PI staining based flow cytometry assay (reference value: 37.35 to 45.32%); type: functional
K562 [7] = test: Induction of apoptosis in human K562 cells assessed as early apoptotic cells at 10 uM incubated for 48 hrs by Annexin-V/PI staining based flow cytometry assay (reference value: 3.18%); type: functional
K562 [8] = test: Induction of apoptosis in human K562 cells assessed as early apoptotic cells at 20 uM incubated for 48 hrs by Annexin-V/PI staining based flow cytometry assay (reference value: 3.18%); type: functional
K562 [9] = test: Upregulation of TNFR-1 expression in human K562 cells; type: functional, cell-based
K562 [10] = test: Induction of apoptosis in human K562 cells assessed as necrotic cells at 20 uM incubated for 48 hrs by Annexin-V/PI staining based flow cytometry assay (reference value: 0.34%); type: functional
K562 [11] = test: Upregulation of CDKN1A/P21 expression in human K562 cells; type: functional, cell-based
K562 [12] = test: Induction of apoptosis in human K562 cells assessed as necrotic cells at 10 uM incubated for 48 hrs by Annexin-V/PI staining based flow cytometry assay (reference value: 0.34%); type: functional
K562 [13] = test: Induction of cell cycle arrest in human K562 cells assessed as G2/M phase cells at 10 uM incubated for 48 hrs by PI staining based flow cytometry assay (reference value: 37.35 to 45.32%); type: functional
K562 [14] = test: Induction of cell cycle arrest in human K562 cells assessed as G2/M phase cells at 40 uM incubated for 48 hrs by PI staining based flow cytometry assay (reference value: 37.35 to 45.32%); type: functional
K562 [15] = test: Induction of cell cycle arrest in human K562 cells assessed as G0-G1 phase cells at 40 uM incubated for 48 hrs by PI staining based flow cytometry assay (reference value: 33.58 to 35.82%); type: functional
K562 [16] = test: Induction of cell cycle arrest in human K562 cells assessed as G0-G1 phase cells at 10 uM incubated for 48 hrs by PI staining based flow cytometry assay (reference value: 33.58 to 35.82%); type: functional
K562 [17] = test: Induction of cell cycle arrest in human K562 cells assessed as S phase cells at 20 uM incubated for 48 hrs by PI staining based flow cytometry assay (reference value: 24.10 to 26.83%); type: functional
K562 [18] = test: Antiproliferative activity against human K562 cells incubated for 48 hrs by MTT assay; type: functional, cell-based; details: K562, 48 h
K562 [19] = test: Induction of apoptosis in human K562 cells assessed as late apoptotic cells at 40 uM incubated for 48 hrs by Annexin-V/PI staining based flow cytometry assay (reference value: 3.73%); type: functional
K562 [20] = test: Induction of apoptosis in human K562 cells assessed as necrotic cells at 40 uM incubated for 48 hrs by Annexin-V/PI staining based flow cytometry assay (reference value: 0.34%); type: functional
K562 [21] = test: Induction of cell cycle arrest in human K562 cells assessed as S phase cells at 40 uM incubated for 48 hrs by PI staining based flow cytometry assay (reference value: 24.10 to 26.83%); type: functional
SiHa [22] = test: Antiproliferative activity against human SiHa cells incubated for 48 hrs by MTT assay; type: functional, cell-based
K562 [23] = test: Induction of apoptosis in human K562 cells assessed as viable cells at 10 uM incubated for 48 hrs by Annexin-V/PI staining based flow cytometry assay (reference value: 92.12%); type: functional; details: read-out: Activity
K562 [24] = test: Induction of apoptosis in human K562 cells assessed as viable cells at 40 uM incubated for 48 hrs by Annexin-V/PI staining based flow cytometry assay (reference value: 92.12%); type: functional; details: read-out: Activity
K562 [25] = test: Induction of apoptosis in human K562 cells assessed as early apoptotic cells at 40 uM incubated for 48 hrs by Annexin-V/PI staining based flow cytometry assay (reference value: 3.18%); type: functional
K562 [26] = test: Induction of apoptosis in human K562 cells assessed as late apoptotic cells at 10 uM incubated for 48 hrs by Annexin-V/PI staining based flow cytometry assay (reference value: 3.73%); type: functional
K562 [27] = test: Induction of cell cycle arrest in human K562 cells assessed as G0-G1 phase cells at 20 uM incubated for 48 hrs by PI staining based flow cytometry assay (reference value: 33.58 to 35.82%); type: functional
[28] = target: T1, DNA (cytosine-5)-methyltransferase 1; test: Binding affinity to human DNMT1 expressed in Escherichia coli assessed as equilibrium dissociation constant by SPR analysis
A2780 [29] = test: Antiproliferative activity against human A2780 cells incubated for 48 hrs by MTT assay; type: functional, cell-based; details: A2780, 48 h
K562 [30] = test: Induction of cell cycle arrest in human K562 cells assessed as S phase cells at 10 uM incubated for 48 hrs by PI staining based flow cytometry assay (reference value: 24.10 to 26.83%); type: functional
[31] = target: T1, DNA (cytosine-5)-methyltransferase 1; test: Binding affinity to human DNMT1 in presence of 10 uM SAM by SPR analysis
[32] = target: T1, DNA (cytosine-5)-methyltransferase 1; test: Binding affinity to human DNMT1 expressed in Escherichia coli assessed as response unit at 10 uM by SPR analysis
[33] = target: T1, DNA (cytosine-5)-methyltransferase 1; test: Inhibition of DNMT1 (unknown origin) at 250 uM using semi-methylated DNA substrate preincubated for 15 mins followed by substrate and [3H-SAM] addition and measured after 60 mins by microbeta scintillation counting assay relative to control; details: time 75.0 min
K562 [34] = test: Antiproliferative activity against human K562 cells at 100 uM incubated for 48 hrs by MTT assay; type: functional
A2780 [35] = test: Antiproliferative activity against human A2780 cells at 100 uM incubated for 48 hrs by MTT assay; type: functional
SiHa [36] = test: Antiproliferative activity against human SiHa cells at 100 uM incubated for 48 hrs by MTT assay; type: functional
HeLa [37] = test: Antiproliferative activity against human HeLa cells at 100 uM incubated for 48 hrs by MTT assay; type: functional
[38] = target: T1, DNA (cytosine-5)-methyltransferase 1; test: Inhibition of human DNMT1 at 500 uM relative to control
[39] = target: T1, DNA (cytosine-5)-methyltransferase 1; test: Binding affinity to human DNMT1 expressed in Escherichia coli assessed as binding constant by SPR analysis

Structure (SMILES): CC(C)(C)c1ccc2c(c1)c1cc(C(C)(C)C)ccc1n2C[C@@H](C(=O)O)N1C(=O)c2ccccc2C1=O
- Activity (K562 [1]): Active
- IC50 [2]: 8.15 µM
- IC50 (HeLa [3]): 66.9 µM
- viability at 20 µM (K562 [4]): 90.2%
- Activity (K562 [5]): 6.5%
- Activity (K562 [6]): 23.67%
- Activity (K562 [7]): 1.39%
- Activity (K562 [8]): 2.78%
- Activity (K562 [9]): Active
- Activity (K562 [10]): 0.56%
- Activity (K562 [11]): Active
- Activity (K562 [12]): 0.37%
- Activity (K562 [13]): 38.67%
- Activity (K562 [14]): 16.56%
- Activity (K562 [15]): 61.14%
- Activity (K562 [16]): 34.61%
- Activity (K562 [17]): 21.5%
- IC50 (K562 [18]): 15.8 µM
- Activity (K562 [19]): 94.09%
- Activity (K562 [20]): 1.47%
- Activity (K562 [21]): 22.3%
- IC50 (SiHa [22]): 25.6 µM
- viability at 10 µM (K562 [23]): 86.2%
- viability at 40 µM (K562 [24]): 3.07%
- Activity (K562 [25]): 1.36%
- Activity (K562 [26]): 2.07%
- Activity (K562 [27]): 54.77%
- Kd [28]: 0.679 µM
- IC50 (A2780 [29]): 32.9 µM
- Activity (K562 [30]): 26.12%

Structure (SMILES): O=C(O)C(Cn1c2ccc(Br)cc2c2cc(Br)ccc21)N1C(=O)c2ccccc2C1=O (racemic) [listing 1 of 2 here]
- Kd [31]: 4.09 µM
- Kd [28]: 1.16 µM

Structure (SMILES): O=C(O)C(Cn1c2ccccc2c2ccccc21)N1C(=O)c2ccccc2C1=O (racemic)
- inhibition [38]: < 10%
- Activity (K562 [34]): <5%
- Activity (A2780 [35]): <5%
- Activity [32]: 25.1 RU
- inhibition [33]: < 50%
- Activity (SiHa [36]): <5%
- Activity (HeLa [37]): <5%

Structure (SMILES): O=C(O)[C@@H](Cn1c2ccc(Cl)cc2c2cc(Cl)cc(Cl)c21)N1C(=O)c2ccccc2C1=O
- IC50 [2]: 0.777 µM
- IC50 (HeLa [3]): 89 µM
- IC50 (K562 [18]): 44.4 µM
- IC50 (SiHa [22]): 83.2 µM
- Kd [28]: 0.127 µM
- IC50 (A2780 [29]): 68.6 µM

Continued, in another order:

- Activity [32]: Active
- inhibition [33]: > 75%
Structure (SMILES): Cc1ccc2c(c1)c1cc(C)ccc1n2CC(C(=O)O)N1C(=O)c2ccccc2C1=O (racemic)

- inhibition [33]: < 50%
Structure (SMILES): O=C(O)C(Cn1c2ccccc2c2cc(I)ccc21)N1C(=O)c2ccccc2C1=O (racemic)
- Activity (K562 [34]): <5%
- Activity (A2780 [35]): <5%
- Activity (SiHa [36]): <5%
- Activity (HeLa [37]): <5%

- IC50 [2]: 43 µM
Structure (SMILES): O=C(O)C(Cn1c2ccc(I)cc2c2cc(I)ccc21)N1C(=O)c2ccccc2C1=O (stereo in doubt; 7o-2)

- IC50 [2]: 38.2 µM
Structure (SMILES): O=C(O)C(Cn1c2ccc(Br)cc2c2cc(Br)ccc21)N1C(=O)c2ccccc2C1=O (stereo in doubt; 7n-2)

- Activity [32]: Active
- inhibition [33]: > 75%
- Ka [39]: 34000 M⁻¹ s⁻¹
Structure (SMILES): O=C(O)C(Cn1c2ccc(Br)cc2c2cc(Br)ccc21)N1C(=O)c2ccccc2C1=O (racemic) [listing 2 of 2 here]
